Results as given in PubChem BioAssay AID248 (DTP/NCI, 2004).
Inconclusive results and toxic doses are left out. Rule as the data show it: active = T/C of 150% or more; inactive = T/C below 125%.

System: L1210 leukemia ip in BDF1 mice, survival T/C
Assay: NCI In Vivo Anticancer Drug Screen. Data for tumor model L1210 Leukemia (intraperitoneal) in B6D2F1 (BDF1) mice
Details: endpoint: mean survival time, higher = longer survival
In short: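 In this screen, tumor-bearing mice given compound are compared to those given vehicle, and their survival values are reported as a treated-to-control quotient.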

[1] = dose: 50.0 mg/kg/injection, schedule: Q01DX009 (ip), vehicle: saline
[2] = dose: 100.0 mg/kg/injection, schedule: Q01DX009 (ip), vehicle: saline
[3] = dose: 100.0 mg/kg/injection, schedule: Q04DX003 (ip), vehicle: saline
[4] = dose: 100.0 mg/kg/injection, schedule: Q01DX001 (ip), vehicle: carboxymethylcellulose (CMC)
[5] = dose: 200.0 mg/kg/injection, schedule: Q01DX001 (ip), vehicle: carboxymethylcellulose (CMC)
[6] = dose: 400.0 mg/kg/injection, schedule: Q01DX001 (ip), vehicle: carboxymethylcellulose (CMC)
[7] = dose: 100.0 mg/kg/injection, schedule: Q01DX001 (ip), vehicle: saline
[8] = dose: 200.0 mg/kg/injection, schedule: Q01DX001 (ip), vehicle: saline
[9] = dose: 400.0 mg/kg/injection, schedule: Q01DX001 (ip), vehicle: saline
[10] = dose: 100.0 mg/kg/injection, schedule: Q04DX003 (ip), vehicle: saline with Tween-80
[11] = dose: 200.0 mg/kg/injection, schedule: Q04DX003 (ip), vehicle: saline with Tween-80
[12] = dose: 400.0 mg/kg/injection, schedule: Q04DX003 (ip), vehicle: saline with Tween-80
[13] = dose: 100.0 mg/kg/injection, schedule: Q01DX009 (ip), vehicle: Klucel (hydroxypropylcellulose) (HPC)
[14] = dose: 200.0 mg/kg/injection, schedule: Q01DX009 (ip), vehicle: Klucel (hydroxypropylcellulose) (HPC)
[15] = dose: 400.0 mg/kg/injection, schedule: Q01DX009 (ip), vehicle: Klucel (hydroxypropylcellulose) (HPC)
[16] = dose: 100.0 mg/kg/injection, schedule: Q01DX009 (ip), vehicle: saline with Tween-80
[17] = dose: 200.0 mg/kg/injection, schedule: Q01DX009 (ip), vehicle: saline with Tween-80
[18] = dose: 400.0 mg/kg/injection, schedule: Q01DX009 (ip), vehicle: saline with Tween-80
[19] = dose: 100.0 mg/kg/injection, schedule: Q04DX003 (ip), vehicle: Klucel (hydroxypropylcellulose) (HPC)
[20] = dose: 200.0 mg/kg/injection, schedule: Q04DX003 (ip), vehicle: Klucel (hydroxypropylcellulose) (HPC)
[21] = dose: 400.0 mg/kg/injection, schedule: Q04DX003 (ip), vehicle: Klucel (hydroxypropylcellulose) (HPC)
[22] = dose: 200.0 mg/kg/injection, schedule: Q04DX003 (ip), vehicle: saline

Measured: T/C

CC(=O)NCC[N+](C)(C)C
inactive: dose: 25.0 mg/kg/injection, schedule: Q01DX009 (ip), vehicle: saline 100 % of control | dose: 25.0 mg/kg/injection, schedule: Q04DX003 (ip), vehicle: saline 97 % of control | [1] 100 % of control | dose: 50.0 mg/kg/injection, schedule: Q04DX003 (ip), vehicle: saline 95 % of control | [2] 105 % of control | [3] 95 % of control

C(=N/N=C/c1ccccn1)/c1cccnc1
inactive: [4] 94 % of control | [5] 96 % of control | [6] 96 % of control

CCOC(=O)c1ccc(N)cc1
inactive: dose: 37.5 mg/kg/injection, schedule: Q01DX009 (ip), vehicle: saline with Tween-80 107 % of control | dose: 50.0 mg/kg/injection, schedule: Q01DX001 (ip), vehicle: saline with Tween-80 97 % of control | dose: 75.0 mg/kg/injection, schedule: Q01DX009 (ip), vehicle: saline with Tween-80 107 % of control | dose: 100.0 mg/kg/injection, schedule: Q01DX001 (ip), vehicle: saline with Tween-80 105 % of control | dose: 150.0 mg/kg/injection, schedule: Q01DX009 (ip), vehicle: saline with Tween-80 91 % of control | dose: 200.0 mg/kg/injection, schedule: Q01DX001 (ip), vehicle: saline with Tween-80 94 % of control

C/C(CC(=O)Nc1ccccn1)=N\c1ccccn1
inactive: [7] 98 % of control | [8] 92 % of control | [9] 88 % of control

c1ccc(B2Nc3ccccc3-c3ccccc32)cc1
inactive: [10] 98 % of control | [11] 96 % of control | [12] 98 % of control

O=c1[nH]c2cc(Cl)cc(Cl)c2c2ccc(Cl)cc12
inactive: [4] 100 % of control | [5] 96 % of control | [6] 89 % of control

CC(=Nc1ccc(Br)cc1)c1c(O)cc(C)oc1=O
inactive: [13] 100 % of control | [14] 91 % of control | [15] 117 % of control

c1ccc(N2N=NC3C4CCC(C4)C32)cc1 (stereo unspecified)
inactive: [16] 108 % of control | [17] 98 % of control | [18] 104 % of control

CCc1nc(N)nc(N)c1-c1ccc(Cl)cc1
inactive: dose: 22.0 mg/kg/injection, schedule: Q01DX Z (ip), vehicle: carboxymethylcellulose (CMC) 120 % of control | dose: 25.0 mg/kg/injection, schedule: Q01DX015 (ip), vehicle: carboxymethylcellulose (CMC) 110 % of control | dose: 35.0 mg/kg/injection, schedule: Q01DX Z (ip), vehicle: carboxymethylcellulose (CMC) 118 % of control | dose: 50.0 mg/kg/injection, schedule: Q01DX015 (ip), vehicle: carboxymethylcellulose (CMC) 116 % of control | dose: 75.0 mg/kg/injection, schedule: Q01DX Z (ip), vehicle: carboxymethylcellulose (CMC) 91 % of control | dose: 200.0 mg/kg/injection, schedule: Q01DX015 (ip), vehicle: carboxymethylcellulose (CMC) 104 % of control

O=C(c1cccnc1)n1cc2c(n1)C1=C(CCCC1)CC2
inactive: [19] 90 % of control | [20] 89 % of control | [21] 86 % of control

O=C(O)/C(=C\CCC/C=C(\CCO)C(=O)O)CCO
inactive: dose: 100.0 mg/kg/injection, schedule: Q01DX001 (ip), vehicle: DMSO 100 % of control | dose: 100.0 mg/kg/injection, schedule: Q01DX009 (ip), vehicle: DMSO 99 % of control | dose: 200.0 mg/kg/injection, schedule: Q01DX001 (ip), vehicle: DMSO 97 % of control | dose: 200.0 mg/kg/injection, schedule: Q01DX009 (ip), vehicle: DMSO 99 % of control | dose: 400.0 mg/kg/injection, schedule: Q01DX001 (ip), vehicle: DMSO 102 % of control | dose: 400.0 mg/kg/injection, schedule: Q01DX009 (ip), vehicle: DMSO 91 % of control

C=COCCN(C)C
inactive: [1] 90 % of control | [2] 93 % of control | [3] 105 % of control | dose: 200.0 mg/kg/injection, schedule: Q01DX009 (ip), vehicle: saline 93 % of control | [22] 89 % of control

C[N+](C)(C)C1(Cc2ccc(Cl)cc2)c2ccccc2-c2ccccc21
inactive: dose: 12.5 mg/kg/injection, schedule: Q01DX009 (ip), vehicle: Klucel (hydroxypropylcellulose) (HPC) 97 % of control | dose: 12.5 mg/kg/injection, schedule: Q04DX003 (ip), vehicle: Klucel (hydroxypropylcellulose) (HPC) 95 % of control | dose: 25.0 mg/kg/injection, schedule: Q01DX009 (ip), vehicle: Klucel (hydroxypropylcellulose) (HPC) 92 % of control | dose: 25.0 mg/kg/injection, schedule: Q04DX003 (ip), vehicle: Klucel (hydroxypropylcellulose) (HPC) 95 % of control | dose: 50.0 mg/kg/injection, schedule: Q01DX009 (ip), vehicle: Klucel (hydroxypropylcellulose) (HPC) 98 % of control | dose: 50.0 mg/kg/injection, schedule: Q04DX003 (ip), vehicle: Klucel (hydroxypropylcellulose) (HPC) 92 % of control

Cc1ccc(Cl)cc1NS(=O)(=O)c1ccc2ccccc2c1
inactive: [16] 106 % of control | [10] 96 % of control | [17] 96 % of control | [11] 104 % of control | [18] 112 % of control | [12] 91 % of control

CCOC(=O)c1cc(N)c(N2CCCC2)cc1Cl
inactive: [16] 109 % of control | [10] 93 % of control | [17] 98 % of control | [11] 93 % of control | [18] 95 % of control | [12] 93 % of control

O=C1C(=O)C(c2ccccc2)Oc2ccccc21 (stereo unspecified)
inactive: dose: 50.0 mg/kg/injection, schedule: Q01DX001 (ip), vehicle: saline 89 % of control | [7] 101 % of control | [8] 98 % of control | [9] 95 % of control

Cc1ccc(C)c(NC(=O)c2ccccc2N)c1
inactive: [13] 98 % of control | [19] 104 % of control | [14] 93 % of control | [20] 97 % of control | [15] 93 % of control | [21] 92 % of control

CCCc1c(N)nc(=S)[nH]c1C(=O)O
inactive: [13] 102 % of control | [3] 96 % of control | [14] 97 % of control | [22] 119 % of control | [15] 94 % of control

CCSc1nc2nccnc2c(=O)[nH]1
inactive: [13] 98 % of control | [19] 97 % of control | [14] 102 % of control | [20] 92 % of control | [15] 102 % of control | [21] 92 % of control

NC(=O)Nc1ccc(Br)cc1Br
inactive: dose: 100.0 mg/kg/injection, schedule: Q04DX002 (ip), vehicle: Klucel (hydroxypropylcellulose) (HPC) 102 % of control | dose: 200.0 mg/kg/injection, schedule: Q04DX002 (ip), vehicle: Klucel (hydroxypropylcellulose) (HPC) 94 % of control
